Source: patent US6930088B2, “Conformationally constrained backbone cyclized somatostatin analogs” (Peptor Ltd., priority 1998, dated 2005)
“Also recorded” adds a separate entry of the source.

Tests used:
insulin release = assay: In-vivo effect on insulin release; design: species or system Wistar male rats
Method: Insulin stimulation was induced by IV bolus administration of D-glucose to overnight fasted rats.
An in-vivo determination of insulin release as a result of peptide administration was measured in Wistar male rats. […] Time course profiles for […] release under constant experimental conditions were measured.
Male Wistar rats were fasted overnight. Animals were anesthetized with Nembutal (IP, 60 mg/kg). Ten minutes after anesthesia, drugs were administrated S.C. at 0.01-100 microgram/kg dose 30 minutes before stimulation of insulin secretion performed by I.V. administration of 0.5 g/kg of D-glucose, 5 minutes before blood collection from abdominal Vena-cava. Hormone levels wer measured by RIA.

SSTR-3 = target: T1, SSTR-3 (Homo sapiens, UniProt P32745); assay: Inhibition of 125I-Tyr11-SRIF binding to membrane preparations expressing SSTR-3; details: read-out: Percent inhibition of SRIF-14 binding
T1 construct: expressed in transfected cells
Method: (§1) The somatostatin analogs were tested for their potency in inhibition of the binding of ^125I-Tyr^11-SRIF (based on the method described by Raynor et. al., Molecular Pharmacology, 1993, 43, 838-844) to membrane preparations expressing the transmembranal somatostatin receptors (SSTR-1, 2, 3, 4 or 5). The receptor preparations used for these tests were either from the cloned human receptors selectively and stably expressed in Chinese Hamster Ovary (CHO) cells or from cell lines naturally expressing the SSTRs. […] The binding reactions were filtered, the filters were washed and the bound radioactivity was counted in gamma counter. Non specific binding was defined as the radioactivity remaining bound in the presence of 1 μM unlabeled SRIF-14.
(§2) In order to validate positive signals of the binding tests, and to eliminate non-specific signals, samples of irrelevant peptides, such as GnRH, that were synthesized and handled using the same procedures, were tested in the same assays as negative control samples. These samples had no binding activity in any of the assays. Results are shown below in Tables 5 and 6 and FIG. 1.

SSTR-5 = target: T2, SSTR-5 (Homo sapiens, UniProt P35346); assay: Inhibition of 125I-Tyr11-SRIF binding to membrane preparations expressing SSTR-5; details: read-out: Percent inhibition of SRIF-14 binding
T2 construct: expressed in transfected cells
Method: The receptor preparations used for these tests were either from the cloned human receptors selectively and stably expressed in Chinese Hamster Ovary (CHO) cells or from cell lines naturally expressing the SSTRs. […] The binding reactions were filtered, the filters were washed and the bound radioactivity was counted in gamma counter. Non specific binding was defined as the radioactivity remaining bound in the presence of 1 μM unlabeled SRIF-14.
as §2

[1] = test system: growth hormone (GH) release; assay: In-vivo inhibition of growth hormone release; design: species or system Wistar male rats
Method: Inhibition of growth hormone (GH) release as a result of peptide administration was measured in Wistar male rats.
Adult male Wistar rats weighing 200-250 g, were maintained on a constant light-dark cycle (light from 8:00 to 20:00 h), temperature (21±3° C.), and relative humidity (55±10%). Laboratory chow and tap water were available ad libitum. On the day of the experiment, rats were anesthetized with Nembutal (IP, 60 mg/kg). Ten minutes after anesthesia, drugs were administered S.C. at 0.01-100 microgram/kg dose. Stimulation of GH was performed by I.V. administration of 0.5 g/kg of L-Arginine through femoral vein. Sampling was carried out following 5 minutes of stimulation, at 15 or 30 minutes after peptide administration. Blood samples were collected form abdominal vena-cava into tubes containing heparin (15 units per ml of blood) and centrifuged immediately. Plasma was separated and kept frozen at −20° C. until assayed. Rat growth hormone (rGH) [^125I] levels were determined by means of a radioimmunoassay kit (Amersham). The standard in this kit has been calibrated against a reference standard preparation (NIH-RP2) obtained from the National Institute of Diabetes and Digestive and Kidney Diseases. All samples were measured in duplicate.

[2] = test system: human peripheral blood lymphocytes (PBL); assay: Human PBL proliferation assay (mitogenicity); assay type: cell-based; details: PBL proliferation assays
Description: PTR 3173 was furthermore found to be not mitogenic for human lymphocytes in human peripheral blood lymphocytes (PBL) proliferation assays.

[3] = Initial safety testing in dogs; assay type: in vivo; details: dose 10,000-fold higher then the efficacious dose for inhibiting Growth hormone release
Method: PTR 3173 was tested in various species for its initial safety properties. Under the European Pharmacopoeia requirements for safety testing, it was declared a safe drug candidate at this stage of development.

[4] = Pharmacokinetics following IV & SC administration; details: for dose excreted: urine
[5] = Metabolic bio-stability against degradation by enzyme mixtures; assay type: in vitro ADME; details: in words; renal homogenate, rat liver homogenate and human serum
SSTR-1 = target: T3, SSTR-1 (Homo sapiens, UniProt P30872); assay: Inhibition of 125I-Tyr11-SRIF binding to membrane preparations expressing SSTR-1; details: read-out: Percent inhibition of SRIF-14 binding
T3 construct: expressed in transfected cells
Method: as §1, §2

glucagon release = assay: In-vivo effect on glucagon release; design: species or system Wistar male rats
Method: In-vivo determination of the release of glucogon as a result of peptide administration was measured in Wistar male rats.
Time course profiles for glucagon release under constant experimental conditions were measured.
Male Wistar rats were fasted overnight. Animals were anesthetized with Nembutal (IP, 60 mg/kg). Ten minutes after anesthesia, drugs were administrated S.C. at 0.01-100 microgram/kg dose. Stimulation of glucagon secretion was performed by I.V. administration of L-arginine, 0.5 g/kg, 5 minutes before blood collection from portal vein. Hormone concentration was measured by RIA.

[6] = Table 4, physiological selectivity

T3 sequence (P30872 whole entry): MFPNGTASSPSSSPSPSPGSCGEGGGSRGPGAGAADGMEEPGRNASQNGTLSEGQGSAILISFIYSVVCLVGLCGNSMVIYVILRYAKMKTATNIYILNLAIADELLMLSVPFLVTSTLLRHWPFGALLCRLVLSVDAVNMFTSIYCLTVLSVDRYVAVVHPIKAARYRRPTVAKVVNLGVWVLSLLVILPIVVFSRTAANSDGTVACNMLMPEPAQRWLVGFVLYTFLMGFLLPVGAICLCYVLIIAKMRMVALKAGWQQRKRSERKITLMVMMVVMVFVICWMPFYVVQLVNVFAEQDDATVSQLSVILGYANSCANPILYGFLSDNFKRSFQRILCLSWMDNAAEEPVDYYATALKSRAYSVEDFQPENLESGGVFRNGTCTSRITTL
T2 sequence (P35346 whole entry): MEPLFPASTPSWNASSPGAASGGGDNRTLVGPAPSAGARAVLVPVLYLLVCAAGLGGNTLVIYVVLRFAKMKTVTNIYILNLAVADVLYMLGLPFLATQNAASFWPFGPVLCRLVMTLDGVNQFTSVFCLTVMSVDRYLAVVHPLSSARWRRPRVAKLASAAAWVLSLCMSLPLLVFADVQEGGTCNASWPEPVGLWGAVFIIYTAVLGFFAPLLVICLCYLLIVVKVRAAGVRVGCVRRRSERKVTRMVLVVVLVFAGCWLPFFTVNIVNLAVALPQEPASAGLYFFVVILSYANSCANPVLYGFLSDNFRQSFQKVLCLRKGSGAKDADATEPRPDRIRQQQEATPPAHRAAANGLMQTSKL
T1 sequence (P32745 whole entry): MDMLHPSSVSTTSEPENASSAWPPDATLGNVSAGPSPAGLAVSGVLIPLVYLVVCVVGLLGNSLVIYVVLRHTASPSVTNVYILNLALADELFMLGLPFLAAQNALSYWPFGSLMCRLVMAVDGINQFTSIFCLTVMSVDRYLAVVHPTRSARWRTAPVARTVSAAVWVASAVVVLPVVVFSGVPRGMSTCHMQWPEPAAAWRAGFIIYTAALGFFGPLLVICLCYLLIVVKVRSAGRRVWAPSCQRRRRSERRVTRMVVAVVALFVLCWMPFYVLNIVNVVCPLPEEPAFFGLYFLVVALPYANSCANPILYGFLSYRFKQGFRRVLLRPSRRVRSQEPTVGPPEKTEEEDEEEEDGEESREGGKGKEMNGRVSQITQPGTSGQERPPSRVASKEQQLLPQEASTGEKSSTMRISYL

In the case of `C[C@@H](O)[C@@H]1NC(=O)[C@H](CCCCN)NC(=O)[C@@H](Cc2c[nH]c3ccccc23)NC(=O)[C@H](Cc2c[nH]c3ccccc23)NC(=O)[C@H](Cc2ccccc2)NC(=O)CCCNC(=O)CCCN(CC(N)=O)C(=O)[C@H](Cc2ccccc2)NC1=O` [PTR 3173, GABA*-Phe-Trp-(D)Trp-Lys-Thr-Phe-Gly(C3)-X], the “effect on insulin release” value (insulin release; 100 micrograms per kilogram, D-glucose stimulation, FIG. 5a) is reported as “inactive on insulin”, the “Insulin ID50” value (insulin release; [6]) is reported as >1000 µg/kg and the “effect on insulin release” value (insulin release; dose of up to 1 milligram per kilogram, FIG. 5b) is reported as “no appreciable effect on insulin”. The “effect on insulin (general statement)” value (insulin release; in words, no dose stated) was “lacks the disadvantages of Octreotide such as inhibition of Insulin secretion; also recorded: no considerable effect on insulin”, the GH/Insulin (insulin release; ratio of ID50 values, Table 4) was >10,000 and the inhibition at 10 pM (SSTR-3) was 2%. It also gave an inhibition at 0.0001 µM (SSTR-3) of 1%, an inhibition at 0.001 µM (SSTR-3) of 1% and an inhibition at 0.01 µM (SSTR-3) of 4%. For the same molecule, the inhibition at 0.1 µM (SSTR-3) was 50%, the inhibition at 1 µM (SSTR-3) was 89% and the inhibition at 10 pM (SSTR-5) was 20%. It also gave an inhibition at 0.0001 µM (SSTR-5) of 48%, an inhibition at 0.001 µM (SSTR-5) of 63% and an inhibition at 0.01 µM (SSTR-5) of 82%. For the same molecule, the inhibition at 0.1 µM (SSTR-5) was 95%, the inhibition at 1 µM (SSTR-5) was 95% and the “effect on growth hormone release” value ([1]; 100 micrograms per kilogram, L-arginine stimulation, Nembutal anesthesia, FIG. 3) was “equipotent inhibitors of growth hormone release in comparison to Octreotide”. For the same molecule, the “GH ID50” value [1, 6] was 0.1 µg/kg, the “effect on growth hormone (general statement)” value ([1]; in words, no dose stated) was “significant inhibition with prolonged duration of action on the Growth Hormone-IGF-1 axis of a similar magnitude as the drug Octreotide; also recorded: potent inhibitor of growth hormone” and the “mitogenicity for human lymphocytes” value [2] was “not mitogenic”. The toxicity signs [3] was “No toxicity signs”, the “Clearance” value ([4]; SC, Conscious Wistar rats) was 13.3 mL/min/kg and the Clearance ([4]; Wistar, rat, in vivo, iv) was 13 mL/min/kg. For the same molecule, the Vd ([4]; Wistar, rat, in vivo, iv) was 0.653 L/kg, the half-life ([4]; Wistar, rat, in vivo, iv, T½β (min) circulating half life, Conscious Wistar rats) was 0.517 h and the bioavailability ([4]; Wistar, rat, in vivo, sc) was 99.6%. It also gave a half-life ([4]; Wistar, rat, in vivo, sc, T½β (min) circulating half life, Conscious Wistar rats) of 2.83 h, a half-life ([4]; Wistar, rat, in vivo, sc, circulatory half-life, subcutaneous administration to rats) of ~3 h and a dose excreted ([4]; Wistar, rat, iv) of 10.3%. For the same molecule, the dose excreted ([4]; Wistar, rat, sc) was 15.9%, the pharmacokinetic profile ([4]; subcutaneous administration, animals) was “flip flop (a slow release kinetic) pharmacokinetcs” and the “metabolic bio-stability against degradation by enzymes” value [5] was “considerable metabolic bio-stability against degradation by enzymes”. It also gave an inhibition at 10 pM (SSTR-1) of 0%, an inhibition at 0.0001 µM (SSTR-1) of 0% and an inhibition at 0.001 µM (SSTR-1) of 0%. It also gave an inhibition at 0.01 µM (SSTR-1) of 0%, an inhibition at 0.1 µM (SSTR-1) of 5% and an inhibition at 1 µM (SSTR-1) of 15%. For the same molecule, the “effect on glucagon levels compare to control” value (glucagon release; 100 micrograms per kilogram, FIG. 4) was “statistically significant difference in glucagon levels compare to control”, the “Glucagon ID50” value (glucagon release; [6]) was >100 µg/kg and the “effect on glucagon (general statement)” value (glucagon release; in words, no dose stated) was “considerably lower affect on the release of glucagon than Octreotide; also recorded: much less activity on glucagon”. For the same molecule, the “GH Glucagon” value (glucagon release; ratio of ID50 values, Table 4) was >1,000.
